The text below walks through data of paper PMC13091788 (NPJ Aging, 2026).

Data set [1] deals with MITOL and mitochondrial proteins in C2C12 myoblasts. The data set is described as follows: Western blot of mitochondrial proteins in C2C12 myoblasts. The class given is cell-based, mouse. The conditions noted are these: 48 h; for levels of Tom20, Mfn2, HSP60 and ATP5a proteins / protein level of MITOL: C2C12, 5 μM or 10 μM. On the procedure:
(§1) Murine myoblast C2C12 cells were used for various cellular experiments in this study. Two different sources of C2C12 cells were used depending on the experiment: C2C12 cells obtained from RIKEN BRC (RCB0987) were used for gene expression, mtDNA quantification, and mitochondrial morphology analysis; C2C12 cells from ATCC (CRL-1772) were used for OCR analysis. Cells were cultured in Dulbecco’s Modified Eagle Medium (DMEM; Sigma-Aldrich or Nacalai Tesque), supplemented with 10% FBS and 1% penicillin–streptomycin. Cells were maintained in a humidified incubator at 37°C with 5% CO2.
For cellular experiments, berberine or quinoid-type berberrubine (Q-BRB) was dissolved in DMSO, and berberrubine acetic acid adduct (AcA-BRB) was dissolved in distilled H2O. Each compound was diluted in culture medium to the indicated final concentrations.
Proteins in sample buffer were separated by SDS-PAGE and transferred to Immobilon-P PVDF membranes (IPVH00010, Millipore). Blots were probed with the indicated antibodies, and protein bands on the blot were visualized using Chemi-Lumi One L (07880-70, Nacalai Tesque) or Immobilon Western Chemiluminescent HRP Substrate (WBKLS0500, Millipore). Band images were captured using a LuminoGraph I imager (WSE-6100, ATTO). Relative band intensities were quantified using Fiji/ImageJ software. Unprocessed western blot images corresponding to the data presented in the main and supplementary figures are provided in Supplementary Figures 11–16.
Background: In western blotting, separated proteins are transferred to a membrane and probed.

Data set [2] in a line: Repeated oral administration: plasma concentration and tissue distribution. As to conditions: mice, 7 days. The class given is in vivo, mouse. The procedure:
In the repeated administration study, animals were treated according to the group allocations as described in the main text and corresponding to Supplementary Figure 2d. Compounds were administered orally either via drinking water or mixed feed for 7 or 28 days, and plasma, brain, heart, and skeletal muscle samples were collected at the final time point (8:00–10:00 a.m.) on the day of sacrifice (n = 4 per group). Blood was drawn from the abdominal vena cava under terminal anesthesia and plasma was separated by centrifugation using heparinized tubes. Tissue samples were homogenized with four volumes of phosphate-buffered saline. Plasma and tissue homogenate samples were precipitated with acetonitrile containing an internal standard (IS) at a volume fourfold or greater than that of the sample, and then centrifuged at 15,000 × g for 10 min at 4 °C. The resulting supernatants were analyzed by LC-MS/MS.
(§2) An LCMS-8060 instrument equipped with a Shimadzu Nexera series LC system (Shimadzu) was used. Berberrubine and IS were analyzed in multiple reaction monitoring mode under electronspray ionization conditions. The analytical column used was a CAPCELL PAK C18 MGIII (3 μm × 2.0 mm ID × 35 mm; OSAKA SODA) at 50 °C. The gradient mobile phase consisted of 0.1% formic acid in water (mobile phase A) and 0.1% formic acid in acetonitrile (mobile phase B) at a total flow rate of 1 mL/min. The initial mobile phase composition was 10% B, which was held constant for 0.5 min, increased in a linear fashion to 90% B over 1 min, then held constant for 0.8 min, and finally brought back to the initial condition of 10% B over 0.01 min and reequilibrated for 1 min. The transitions (precursor ion > product ion) of berberrubine and IS (methyl testosterone) are 322.11 > 307.1 and 303.1 > 109.1 (positive), respectively.

The nature of data set [3]: Water solubility, roughly examined. It counts as physicochemical. The procedure:
Finally, we compared the water solubility of the three berberrubine forms. The solubility of three compounds, the reddish-black solid (quinoid-type berberrubine), the reddish-brown solid (berberrubine acetic acid salt), and the yellow solid (berberrubine acetic acid adduct), in water was roughly examined. […] On the other hand, the reddish-brown solid dissolved in about 30 mg in 1 mL of water.

The test system of data set [4] is C2C12 cells. The data set is described as follows: Quantification of mitochondrial DNA (mtDNA/nDNA ratio). As to conditions: C2C12, 10 μM. The class given is cell-based, mouse. On the procedure: as §1
To generate mMITOL-knockout C2C12 cells, CRISPR-Cas9 vectors were constructed. Single-guide RNAs (sgRNAs) targeting the mouse MITOL gene were designed using the online tool CRISPOR (http://crispor.org). The oligonucleotide pair corresponding to the mMITOL guide RNA (gRNA sequence, 5′-[…]-3′) was annealed and ligated into the PX459 vector (48139, Addgene). C2C12 cells were transfected using Lipofectamine 3000 (Thermo Fisher Scientific), and knockout clones were selected by serial dilution.
To assess mitochondrial DNA (mtDNA) content, the mtDNA/nuclear DNA (nDNA) ratio was determined by extracting DNA from C2C12 cells using the NucleoSpin Tissue Kit (Takara Bio), followed by real-time quantitative PCR analysis with specific primer sets for mtDNA (16S rRNA or ND1) and nDNA (Hexokinase 2; HK2) (Supplementary Table 2). Real-time quantitative PCR was performed using TB Green Premix Ex Taq II (Takara Bio) and a Thermal Cycler Dice Real-Time System (Takara Bio). The analysis of mtDNA/nDNA ratios was conducted using the ΔΔCt method as previously described.

The nature of data set [5]: In vivo pharmacokinetics, single oral dose. Details: species or system mouse. As to conditions: mice; for AUC(0-inf) / Cmax / Tmax / half-life / CL/F: male, C57BL/6 N, mouse, plasma; for CL/F: read-out: CLtot/F; for time to reach maximum plasma concentration (Cmax): oral, both 10 mg/kg and 100 mg/kg. The procedure: All mouse experiments were approved by and conducted in accordance with the guidelines of the Animal Experiment Committee of the University of Tokyo (permission number: P29-24). The compounds were suspended in 0.5% methylcellulose and orally administered to 8-week-old male C57BL/6 N mice (Oriental Yeast) following an overnight fast. The dosage of the compound was 10 or 100 mg/10 mL/kg. Serial blood samples ( < 50 μL per time point) were collected from the caudal vein of each mouse at 15 and 30 min, and at 1, 2, 4, 6 and 24 h post-dose using EM MYSTAR Hematocrit Capillary treated with heparin (AS ONE). Plasma was obtained by centrifugation of the blood samples. After the final blood sampling at 24 h, the mice were humanely euthanized.
Before pharmacokinetic analyses, plasma concentrations were averaged at each time point. Concentrations below the limit of quantitation were excluded from the analysis. Pharmacokinetic analyses were conducted using PhoenixWinNonlin version 8.3 (Pharsight Corp). The maximum plasma concentrations (Cmax) and times to achieve maximum plasma concentrations (Tmax) were obtained directly from the plasma concentration-time curves. The area under the concentration-time curve from zero to infinity (AUC∞) was obtained using the linear trapezoidal method in the noncompartmental analysis module. The software was allowed to determine the best-fit line for the elimination slope for all calculations. Other parameters such as elimination half-life period (t1/2), the apparent total body clearance CLtot/F, and volume of distribution Vdz/F were further calculated.
as §2

The mark [6] stands for this setting: 2 mg/mL AcA-BRB in drinking water.

Read-outs that look alike come from different tables or passages of the source.

On to `COc1ccc2cc3[n+](cc2c1O)CCc1cc2c(cc1-3)OCO2` [AcA-BRB, berberrubine acetic acid adduct], for which, in data set [1], the “levels of Tom20, Mfn2, HSP60 and ATP5a proteins” value is “dose-dependent trend in elevating”; the “protein level of MITOL” value was “significantly increased”. In data set [2] (2 mg/mL in drinking water), the “plasma berberrubine concentration compared to all other groups” value was “significantly higher”. In addition, the solubility (usually how much of the substance goes into solution per volume) in data set [3] (roughly examined) is ≥ 1000 mg/mL. The “mitochondrial abundance (mtDNA 16S rRNA or ND1 / nuclear HK2)” value in data set [4] is listed as “significantly increased”. Further, in data set [5] (single oral gavage 10 mg/kg), the area under the curve AUC(0-inf) (as a rule, the area under the concentration-time curve extrapolated to infinity) amounted to 95.7 ng·h/mL; the peak level (Cmax) was 101 ng/mL; the Tmax – broadly, the time at which the peak concentration occurs – worked out at 15 min; the half-life (in general, how long it takes for the measured level to halve) was 101 min. Further, in data set [5] (single oral gavage 10 mg/kg), the CL/F was found to be 1740 mL/min/kg and the Vdz/F is given as 253 L/kg. In data set [5] (single oral gavage 100 mg/kg), the total exposure AUC(0-inf) is 2130 ng·h/mL; the highest concentration (Cmax) (in general, the maximum level reached in the sampled fluid or tissue) came to 3060 ng/mL; the time of peak concentration (Tmax) was determined as 15 min; the half-life was 259 min. For the same compound, in data set [5] (single oral gavage 100 mg/kg), the CL/F is 783 mL/min/kg and the Vdz/F was 292 L/kg. Moreover, the “time to reach maximum plasma concentration (Cmax)” value in data set [5] was ≤ 0.25 h.

Consider `COc1ccc2cc3n(cc-2c1=O)CCc1cc2c(cc1-3)OCO2` [Q-BRB, quinoid-type berberrubine], for which, in data set [1], the “levels of Tom20, Mfn2, HSP60 and ATP5a proteins” value was “dose-dependent trend in elevating”; the “protein level of MITOL” value is recorded as “significantly increased”. For the same compound, in data set [3], the “dissolution in 1000 mL of water” value is listed as “not possible to observe any dissolution”. Besides, the “mitochondrial abundance (mtDNA 16S rRNA or ND1 / nuclear HK2)” value in data set [4] is listed as “significantly increased”. Further, in data set [5] (single oral gavage 10 mg/kg), the area under the curve AUC(0-inf) came out at 76.5 ng·h/mL, the maximum concentration (Cmax) amounted to 126 ng/mL, the time of peak concentration (Tmax) is 15 min and the half-life is 89.4 min. In data set [5] (single oral gavage 10 mg/kg), the CL/F was determined as 2180 mL/min/kg and the Vdz/F turned out to be 281 L/kg. Besides, in data set [5] (single oral gavage 100 mg/kg), the AUC(0-inf) was determined as 5110 ng·h/mL, the peak level (Cmax) was 8340 ng/mL, the time to peak (Tmax) turned out to be 15 min and the half-life was 299 min. Besides, in data set [5] (single oral gavage 100 mg/kg), the CL/F worked out at 326 mL/min/kg and the Vdz/F was 141 L/kg. For the same compound, the “time to reach maximum plasma concentration (Cmax)” value in data set [5] is ≤ 0.25 h.

Take `COc1ccc2cc3[n+](cc2c1O)CCc1cc2c(cc1-3)OCO2` [berberrubine]: the “MITOL expression (western blot)” value in data set [1] (C2C12, 10 μM, berberrubine used as quinoid-type form) was “significantly upregulated”. Besides, the “expression of other mitochondrial-associated proteins (Tom20, Mfn2, HSP60, ATP5a)” value in data set [1] (C2C12, 10 μM, quinoid-type form) was “markedly increased”. The “protein levels of OPA1, Fis1 and MFF” value in data set [1] (C2C12, Q-BRB or AcA-BRB 10 μM) was “increased”. In addition, in data set [2] (setting [6]), the “berberrubine concentration in the heart compared to other tissues” value is “tendency toward higher concentrations” and the “berberrubine level in the brain” value is listed as “exceptionally low”. Besides, the “dissolution in 1000 mL of water” value in data set [3] is “did not dissolve”.
